Reference: US20230035763A1, “METHODS OF TREATING CANCER USING TUBULIN BINDING AGENTS” (BeyondSpring Pharnaceuticals, Inc., priority 2018, published 2023)

Columns and labels:
[1] = test system: LXFA289, LXFA526, LXFA629, LXFA983, A549, HOP-62, NCI-H322M, NCI-H226, SK-MES-1, A427, NCI-H1299, H2171, SCLC-21H; experiment: CellTiter-Blue cell viability assay, lung cell lines (Inactive group); format: cell-based, human; design: key: Active: active (IC70<1 µM); Inactive: inactive (IC70>1 µM, and usually >10 µM); conditions: Lung: LXFA289, LXFA526, LXFA629, LXFA983, A549, HOP-62, NCI-H322M, IC70 class, 24 h treatment + 48 h compound-free
Description: (§1) Working stock solution of the test compounds (Plinabulin, Docetaxel and Paclitaxel) were prepared in DMSO at a concentration of 3.14 (Plinabulin) or 3.3 mM (Docetaxel and Paclitaxel), and small aliquots were stored at −20° C. On each day of an experiment, a frozen aliquot of the working stock solutions was thawed and stored at room temperature prior to and during treatment. All liquid handling steps were done by the Tecan Freedom EVO 200 platform. First, serial half-log dilutions of the DMSO working stock solution were made in DMSO. The DMSO dilutions were then diluted 1:22 into cell culture medium in an intermediate dilution plate. Finally, 10 μl taken from the intermediate dilution plate was transferred to 140 μl/well of the final assay plate. […] Briefly, cells were harvested from exponential phase cultures, counted and plated in 96-well flat-bottom microtiter plates at a cell density of 4,000 to 60,000 cells/well dependent on the cell line's growth rate. […] After the initial application of the compounds for 24 hours, the compound-containing media was exchanged to media without compounds and incubation was continued for a further 48 hours until read-out. […] Following incubation with CellTiter-Blue® reagent for up to four hours, fluorescence (FU) was measured by using the Enspire Multimode Plate Reader (excitation λ=570 nm, emission λ=600 nm). […]

[2] = test system: A-172, SF-539, SNB-78, U-251, U-87MG; experiment: CellTiter-Blue cell viability assay, CNS cell lines (Active group); format: cell-based, human; design: key: Active: active (IC70<1 µM); Inactive: inactive (IC70>1 µM, and usually >10 µM); conditions: CNS: A-172, SF-539, SNB-78, U-251, U-87MG; IC70 class, 24 h treatment + 48 h compound-free
Description: as §1

OVXF899, OVXF1023 = experiment: CellTiter-Blue cell viability assay, ovarian cell lines (Inactive group); format: cell-based, human; design: key: Active: active (IC70<1 µM); Inactive: inactive (IC70>1 µM, and usually >10 µM); conditions: IC70 class, 24 h treatment + 48 h compound-free
Description: as §1

[3] = test system: 22Rv1, DU-145, LNCaP, PC-3M; experiment: CellTiter-Blue cell viability assay, prostate cell lines (Active group); format: cell-based, human; design: key: Active: active (IC70<1 µM); Inactive: inactive (IC70>1 µM, and usually >10 µM); conditions: Prostate: 22Rv1, DU-145, LNCaP, IC70 class, 24 h treatment + 48 h compound-free
Description: as §1

[4] = test system: Calu-, LXFL1121, NCI-H460; experiment: CellTiter-Blue cell viability assay, lung cell lines (Active group); format: cell-based, human; design: key: Active: active (IC70<1 µM); Inactive: inactive (IC70>1 µM, and usually >10 µM); conditions: IC70 class, 24 h treatment + 48 h compound-free
Description: as §1

[5] = test system: MAXFTN401, BT-474, HCC-1937, MCF7, MDA-MB-231; experiment: CellTiter-Blue cell viability assay, breast cell lines (Inactive group); format: cell-based, human; design: key: Active: active (IC70<1 µM); Inactive: inactive (IC70>1 µM, and usually >10 µM); conditions: Breast: MAXFTN401, BT-474, HCC-1937, MCF7, MDA-MB-231; IC70 class, 24 h treatment + 48 h compound-free
Description: as §1

PC-3 = experiment: CellTiter-Blue cell viability assay, prostate cell line (Inactive group); format: cell-based, human; design: key: Active: active (IC70<1 µM); Inactive: inactive (IC70>1 µM, and usually >10 µM); conditions: Prostate: PC-3; IC70 class, 24 h treatment + 48 h compound-free
Description: as §1

[6] = test system: CAL-51, HS578T, JIMT-1, MCF10A, MX1; experiment: CellTiter-Blue cell viability assay, breast cell lines (Active group); format: cell-based, human; design: key: Active: active (IC70<1 µM); Inactive: inactive (IC70>1 µM, and usually >10 µM); conditions: Breast: CAL-51, HS578T, IC70 class, 24 h treatment + 48 h compound-free
Description: as §1

[7] = test system: 43 human cancer cell lines (breast, lung, prostate, ovarian or CNS); experiment: CellTiter-Blue cell viability assay, IC70, panel of human cancer cell lines; format: cell-based; conditions: 24 h treatment, then 48 h without plinabulin
Description: Plinabulin is a tubulin targeted agent that binds near the colchicine site in β-tubulin and is being tested in a Phase 3 clinical study for the treatment of non-small cell lung cancer. The colchicine site is distinct from the binding site of taxanes (e.g. Paclitaxel and docetaxel), and binding site and other differences between tubulin targeted agents are often associated with differing effects on biological functions, disease outcomes and safety profiles. Additional indications are being considered for plinabulin so a model for selecting especially responsive patients would be of significant value. As a first step towards building this model, the in vitro activity of Plinabulin against 43 human cancer cell lines (breast, lung, prostate, ovarian or CNS), previously characterized for mRNA expression with the Affymetrix HGU133 Plus 2.0 array, was evaluated. Although screening for in vitro anticancer activity is typically performed with constant treatment of the agent for 48-72 hours, cells were treated for only 24 hours with plinabulin and then cultured for another 48 hours without plinabulin.
Typically anticancer activity is judged at the 50% effect level (50% reduction in viable tumor cells), but viable cell concentration are quantified here with a Cell Titer-Blue Assay to find the concentration causing a 70% reduction in the quantity of viable tumor cells (IC70). […]

[8] = test system: A2780, EFO-21, EFO-27, OVCAR3; experiment: CellTiter-Blue cell viability assay, ovarian cell lines (Active group); format: cell-based, human; design: key: Active: active (IC70<1 µM); Inactive: inactive (IC70>1 µM, and usually >10 µM); conditions: Ovarian: A2780, EFO-21, EFO-27, OVCAR3; IC70 class, 24 h treatment + 48 h compound-free
Description: as §1

CC(C)(C)c1[nH]cnc1/C=c1\[nH]c(=O)/c(=C/c2ccccc2)[nH]c1=O [Plinabulin]
Plinabulin Activity [1]: Inactive | Plinabulin Activity [2]: Active | Plinabulin Activity (OVXF899, OVXF1023): Inactive | Plinabulin Activity [3]: Active | Plinabulin Activity [4]: Active | Plinabulin Activity [5]: Inactive | Plinabulin Activity (PC-3): Inactive | Plinabulin Activity [6]: Active | IC70 (concentration causing a 70% reduction in the quantity of viable tumor cells) ([7]; 21 cell lines of the Active category): < 1.0 µM | IC70 (concentration causing a 70% reduction in the quantity of viable tumor cells) ([7]; 91% of the cell lines of the Inactive category): > 9.5 µM | Plinabulin Activity [8]: Active
